According to ChEMBL document CHEMBL4507294, “Data for DCP probe MSD-CYP11B2” (2021):

What was measured:
[1] = biological target: Mitogen-activated protein kinase kinase kinase kinase 5 (Homo sapiens) (UniProt Q9Y4K4); conditions: Compound concentration 1000.0 nM
[2] = biological target: Cyclin-dependent kinase 7 (Homo sapiens) (UniProt P50613); conditions: Compound concentration 1000.0 nM
[3] = biological target: Mitogen-activated protein kinase kinase kinase kinase 4 (Homo sapiens) (UniProt O95819); conditions: Compound concentration 1000.0 nM
[4] = biological target: Mitogen-activated protein kinase kinase kinase 4 (Homo sapiens) (UniProt Q9Y6R4); conditions: Compound concentration 1000.0 nM
[5] = biological target: Ephrin type-A receptor 8 (Homo sapiens) (UniProt P29322); conditions: Compound concentration 1000.0 nM
[6] = biological target: Tyrosine-protein kinase receptor TYRO3 (Homo sapiens) (UniProt Q06418); conditions: Compound concentration 1000.0 nM
[7] = biological target: Ribosomal protein S6 kinase alpha-4 (Homo sapiens) (UniProt O75676); conditions: Compound concentration 1000.0 nM
[8] = biological target: Testis-specific serine/threonine-protein kinase 1 (Homo sapiens) (UniProt Q9BXA7); conditions: Compound concentration 1000.0 nM
[9] = biological target: MAP/microtubule affinity-regulating kinase 4 (Homo sapiens) (UniProt Q96L34); conditions: Compound concentration 1000.0 nM
[10] = biological target: Ephrin type-A receptor 7 (Homo sapiens) (UniProt Q15375); conditions: Compound concentration 1000.0 nM
[11] = biological target: Serine/threonine-protein kinase ICK (Homo sapiens) (UniProt Q9UPZ9); conditions: Compound concentration 1000.0 nM
[12] = biological target: Tyrosine-protein kinase Tec (Homo sapiens) (UniProt P42680); conditions: Compound concentration 1000.0 nM
[13] = biological target: Non-receptor tyrosine-protein kinase TNK1 (Homo sapiens) (UniProt Q13470); conditions: Compound concentration 1000.0 nM
[14] = biological target: RAC-gamma serine/threonine-protein kinase (Homo sapiens) (UniProt Q9Y243); conditions: Compound concentration 1000.0 nM
[15] = biological target: Phosphorylase b kinase gamma catalytic chain, skeletal muscle/heart isoform (Homo sapiens) (UniProt Q16816); conditions: Compound concentration 1000.0 nM
[16] = biological target: Ribosomal protein S6 kinase alpha-5 (Homo sapiens) (UniProt O75582); conditions: Compound concentration 1000.0 nM
[17] = biological target: Serine/threonine-protein kinase ULK3 (Homo sapiens) (UniProt Q6PHR2); conditions: Compound concentration 1000.0 nM
[18] = biological target: Activin receptor type-1 (Homo sapiens) (UniProt Q04771); conditions: Compound concentration 1000.0 nM
[19] = system: Tyrosine-protein kinase ABL1 (Homo sapiens), P00519 [T315I]; conditions: Compound concentration 1000.0 nM
[20] = biological target: Serine/threonine-protein kinase PLK4 (Homo sapiens) (UniProt O00444); conditions: Compound concentration 1000.0 nM
[21] = biological target: Rhodopsin kinase GRK1 (Homo sapiens) (UniProt Q15835); conditions: Compound concentration 1000.0 nM
[22] = system: Receptor-type tyrosine-protein kinase FLT3 (Homo sapiens), P36888 [D835H]; conditions: Compound concentration 1000.0 nM
[23] = biological target: cAMP-dependent protein kinase catalytic subunit PRKX (Homo sapiens) (UniProt P51817); conditions: Compound concentration 1000.0 nM
[24] = biological target: Epidermal growth factor receptor (Homo sapiens) (UniProt P00533); conditions: Compound concentration 1000.0 nM
[25] = biological target: Tyrosine-protein kinase TXK (Homo sapiens) (UniProt P42681); conditions: Compound concentration 1000.0 nM
[26] = biological target: Serine/threonine-protein kinase MARK1 (Homo sapiens) (UniProt Q9P0L2); conditions: Compound concentration 1000.0 nM
[27] = biological target: Hepatocyte growth factor receptor (Homo sapiens) (UniProt P08581); conditions: Compound concentration 1000.0 nM
[28] = biological target: Serine/threonine-protein kinase SIK1 (Homo sapiens) (UniProt P57059); conditions: Compound concentration 1000.0 nM
[29] = biological target: Cyclin-dependent kinase 18 (Homo sapiens) (UniProt Q07002); conditions: Compound concentration 1000.0 nM
[30] = biological target: Serine/threonine-protein kinase WNK3 (Homo sapiens) (UniProt Q9BYP7); conditions: Compound concentration 1000.0 nM
[31] = system: Receptor-type tyrosine-protein kinase FLT3 (Homo sapiens), P36888 [D835V]; conditions: Compound concentration 1000.0 nM
[32] = biological target: NT-3 growth factor receptor (Homo sapiens) (UniProt Q16288); conditions: Compound concentration 1000.0 nM
[33] = biological target: Mitogen-activated protein kinase kinase kinase 9 (Homo sapiens) (UniProt P80192); conditions: Compound concentration 1000.0 nM
[34] = biological target: Fibroblast growth factor receptor 3 (Homo sapiens) (UniProt P22607); conditions: Compound concentration 1000.0 nM
[35] = biological target: Peripheral plasma membrane protein CASK (Homo sapiens) (UniProt O14936); conditions: Compound concentration 1000.0 nM
[36] = biological target: Serine/threonine-protein kinase Nek5 (Homo sapiens) (UniProt Q6P3R8); conditions: Compound concentration 1000.0 nM
[37] = biological target: MAP kinase-interacting serine/threonine-protein kinase 1 (Homo sapiens) (UniProt Q9BUB5); conditions: Compound concentration 1000.0 nM
[38] = biological target: Mitogen-activated protein kinase 11 (Homo sapiens) (UniProt Q15759); conditions: Compound concentration 1000.0 nM
[39] = biological target: Receptor-interacting serine/threonine-protein kinase 2 (Homo sapiens) (UniProt O43353); conditions: Compound concentration 1000.0 nM
[40] = biological target: Tyrosine-protein kinase SYK (Homo sapiens) (UniProt P43405); conditions: Compound concentration 1000.0 nM
[41] = biological target: 5'-AMP-activated protein kinase catalytic subunit alpha-2 (Homo sapiens) (UniProt P54646); conditions: Compound concentration 1000.0 nM
[42] = biological target: Casein kinase I isoform delta (Homo sapiens) (UniProt P48730); conditions: Compound concentration 1000.0 nM
[43] = biological target: Non-receptor tyrosine-protein kinase TYK2 (Homo sapiens) (UniProt P29597); conditions: Compound concentration 1000.0 nM
[44] = biological target: Serine/threonine-protein kinase Nek10 (Homo sapiens) (UniProt Q6ZWH5); conditions: Compound concentration 1000.0 nM
[45] = biological target: D(4) dopamine receptor (Homo sapiens) (UniProt P21917); conditions: Compound concentration 10.0 uM
Sequence of D(4) dopamine receptor (Homo sapiens) (P21917 whole entry): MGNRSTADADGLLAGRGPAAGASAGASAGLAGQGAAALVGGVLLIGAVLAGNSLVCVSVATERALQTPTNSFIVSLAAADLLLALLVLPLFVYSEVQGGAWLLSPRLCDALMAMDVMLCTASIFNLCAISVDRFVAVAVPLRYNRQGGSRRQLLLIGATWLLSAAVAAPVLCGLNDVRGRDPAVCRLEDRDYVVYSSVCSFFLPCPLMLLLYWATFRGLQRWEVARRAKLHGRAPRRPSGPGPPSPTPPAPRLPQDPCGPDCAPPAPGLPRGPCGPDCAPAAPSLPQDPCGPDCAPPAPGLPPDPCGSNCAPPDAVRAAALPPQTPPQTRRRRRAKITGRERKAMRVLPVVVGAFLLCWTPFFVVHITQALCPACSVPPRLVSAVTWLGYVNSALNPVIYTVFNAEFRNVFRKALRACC

Sequence of Mitogen-activated protein kinase kinase kinase kinase 4 (Homo sapiens) (O95819 2-1239 limits assumed): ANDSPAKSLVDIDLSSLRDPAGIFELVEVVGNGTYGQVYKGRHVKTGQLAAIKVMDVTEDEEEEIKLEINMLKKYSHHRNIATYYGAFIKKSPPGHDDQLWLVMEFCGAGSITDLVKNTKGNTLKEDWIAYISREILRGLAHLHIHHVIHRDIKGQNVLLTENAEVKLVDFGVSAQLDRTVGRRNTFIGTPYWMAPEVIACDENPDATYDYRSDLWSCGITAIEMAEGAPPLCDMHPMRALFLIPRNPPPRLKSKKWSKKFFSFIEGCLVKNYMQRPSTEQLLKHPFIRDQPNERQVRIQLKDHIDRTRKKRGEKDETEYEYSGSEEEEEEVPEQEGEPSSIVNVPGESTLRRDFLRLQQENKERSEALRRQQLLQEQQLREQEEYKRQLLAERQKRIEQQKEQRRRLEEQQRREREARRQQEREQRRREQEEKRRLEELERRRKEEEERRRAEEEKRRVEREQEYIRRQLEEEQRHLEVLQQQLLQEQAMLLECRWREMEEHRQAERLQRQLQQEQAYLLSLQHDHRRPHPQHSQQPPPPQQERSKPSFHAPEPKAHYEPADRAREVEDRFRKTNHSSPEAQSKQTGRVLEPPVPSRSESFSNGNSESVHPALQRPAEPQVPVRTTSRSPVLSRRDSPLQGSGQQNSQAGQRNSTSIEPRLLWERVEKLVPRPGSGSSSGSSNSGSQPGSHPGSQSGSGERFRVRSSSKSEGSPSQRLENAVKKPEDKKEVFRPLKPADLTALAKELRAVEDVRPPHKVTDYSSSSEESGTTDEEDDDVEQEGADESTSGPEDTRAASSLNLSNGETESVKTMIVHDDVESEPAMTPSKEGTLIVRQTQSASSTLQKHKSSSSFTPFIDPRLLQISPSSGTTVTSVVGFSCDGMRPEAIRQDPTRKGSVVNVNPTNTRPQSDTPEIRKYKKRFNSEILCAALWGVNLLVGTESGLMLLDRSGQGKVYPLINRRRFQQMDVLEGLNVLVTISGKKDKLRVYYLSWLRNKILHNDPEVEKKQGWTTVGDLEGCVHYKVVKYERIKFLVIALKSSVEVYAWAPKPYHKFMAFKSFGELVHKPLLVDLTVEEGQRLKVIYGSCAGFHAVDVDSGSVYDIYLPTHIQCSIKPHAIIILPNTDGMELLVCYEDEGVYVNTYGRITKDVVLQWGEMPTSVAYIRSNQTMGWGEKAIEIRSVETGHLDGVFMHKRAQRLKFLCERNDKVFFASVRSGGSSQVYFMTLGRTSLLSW
Sequence of Cyclin-dependent kinase 18 (Homo sapiens) (Q07002 whole entry): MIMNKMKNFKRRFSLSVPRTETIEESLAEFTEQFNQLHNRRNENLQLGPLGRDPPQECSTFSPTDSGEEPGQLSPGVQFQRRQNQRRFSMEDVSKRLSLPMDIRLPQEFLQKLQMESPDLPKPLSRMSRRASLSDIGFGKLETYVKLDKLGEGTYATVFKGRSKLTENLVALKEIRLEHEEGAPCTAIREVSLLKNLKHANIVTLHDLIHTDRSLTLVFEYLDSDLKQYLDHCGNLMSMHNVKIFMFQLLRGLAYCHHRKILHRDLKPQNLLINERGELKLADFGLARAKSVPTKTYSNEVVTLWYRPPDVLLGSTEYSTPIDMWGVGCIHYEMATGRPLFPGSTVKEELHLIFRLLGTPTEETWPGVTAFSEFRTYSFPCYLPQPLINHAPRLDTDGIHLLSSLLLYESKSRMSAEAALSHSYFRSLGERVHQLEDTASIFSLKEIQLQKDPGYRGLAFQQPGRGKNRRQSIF
Sequence of Ribosomal protein S6 kinase alpha-5 (Homo sapiens) (O75582 whole entry, looked up): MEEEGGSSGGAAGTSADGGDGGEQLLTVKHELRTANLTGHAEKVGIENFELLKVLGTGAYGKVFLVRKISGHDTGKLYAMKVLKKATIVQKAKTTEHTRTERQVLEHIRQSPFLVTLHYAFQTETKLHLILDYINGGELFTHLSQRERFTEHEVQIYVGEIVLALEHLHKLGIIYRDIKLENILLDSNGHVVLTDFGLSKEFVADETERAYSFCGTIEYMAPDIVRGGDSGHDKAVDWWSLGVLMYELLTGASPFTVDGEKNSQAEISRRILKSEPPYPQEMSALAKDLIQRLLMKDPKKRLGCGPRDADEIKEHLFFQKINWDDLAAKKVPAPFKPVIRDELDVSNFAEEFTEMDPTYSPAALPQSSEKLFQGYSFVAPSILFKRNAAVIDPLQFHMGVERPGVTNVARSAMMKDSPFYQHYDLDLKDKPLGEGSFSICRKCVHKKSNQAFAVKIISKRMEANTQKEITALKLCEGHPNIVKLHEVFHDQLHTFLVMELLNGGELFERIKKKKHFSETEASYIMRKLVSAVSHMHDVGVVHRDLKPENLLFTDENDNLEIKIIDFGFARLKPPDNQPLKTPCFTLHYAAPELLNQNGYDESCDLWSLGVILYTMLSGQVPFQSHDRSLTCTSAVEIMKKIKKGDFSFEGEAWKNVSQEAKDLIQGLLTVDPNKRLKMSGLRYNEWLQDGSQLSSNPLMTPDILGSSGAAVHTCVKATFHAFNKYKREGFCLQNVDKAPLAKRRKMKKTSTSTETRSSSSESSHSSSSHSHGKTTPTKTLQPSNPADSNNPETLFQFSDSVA
Sequence of Ephrin type-A receptor 8 (Homo sapiens) (P29322 whole entry): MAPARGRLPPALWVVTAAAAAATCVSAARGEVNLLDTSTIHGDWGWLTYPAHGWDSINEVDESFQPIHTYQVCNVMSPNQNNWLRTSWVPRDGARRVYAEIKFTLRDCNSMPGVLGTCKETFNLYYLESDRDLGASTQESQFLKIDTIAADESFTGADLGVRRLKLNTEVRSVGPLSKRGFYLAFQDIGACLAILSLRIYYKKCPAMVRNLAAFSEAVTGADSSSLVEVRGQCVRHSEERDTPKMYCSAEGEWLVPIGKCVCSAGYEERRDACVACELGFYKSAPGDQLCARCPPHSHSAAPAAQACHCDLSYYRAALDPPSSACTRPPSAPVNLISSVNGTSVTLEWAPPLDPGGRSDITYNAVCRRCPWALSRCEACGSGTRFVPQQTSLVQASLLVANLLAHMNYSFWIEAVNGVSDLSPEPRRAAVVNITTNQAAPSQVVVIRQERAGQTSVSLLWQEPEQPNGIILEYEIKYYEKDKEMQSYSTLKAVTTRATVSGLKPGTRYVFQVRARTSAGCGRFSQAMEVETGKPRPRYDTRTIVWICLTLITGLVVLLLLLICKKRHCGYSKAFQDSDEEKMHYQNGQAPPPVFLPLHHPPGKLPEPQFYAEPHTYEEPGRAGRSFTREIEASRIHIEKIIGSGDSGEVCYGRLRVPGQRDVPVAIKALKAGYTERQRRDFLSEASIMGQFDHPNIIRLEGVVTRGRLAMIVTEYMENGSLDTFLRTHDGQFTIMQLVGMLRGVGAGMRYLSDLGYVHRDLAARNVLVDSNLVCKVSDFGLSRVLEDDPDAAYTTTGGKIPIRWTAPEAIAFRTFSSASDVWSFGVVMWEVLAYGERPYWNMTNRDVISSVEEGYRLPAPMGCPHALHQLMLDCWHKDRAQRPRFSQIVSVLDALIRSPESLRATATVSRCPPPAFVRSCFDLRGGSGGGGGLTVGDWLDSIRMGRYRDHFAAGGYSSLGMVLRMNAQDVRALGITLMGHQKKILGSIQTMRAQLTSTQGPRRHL
Sequence of NT-3 growth factor receptor (Homo sapiens) (Q16288 32-839 limits assumed): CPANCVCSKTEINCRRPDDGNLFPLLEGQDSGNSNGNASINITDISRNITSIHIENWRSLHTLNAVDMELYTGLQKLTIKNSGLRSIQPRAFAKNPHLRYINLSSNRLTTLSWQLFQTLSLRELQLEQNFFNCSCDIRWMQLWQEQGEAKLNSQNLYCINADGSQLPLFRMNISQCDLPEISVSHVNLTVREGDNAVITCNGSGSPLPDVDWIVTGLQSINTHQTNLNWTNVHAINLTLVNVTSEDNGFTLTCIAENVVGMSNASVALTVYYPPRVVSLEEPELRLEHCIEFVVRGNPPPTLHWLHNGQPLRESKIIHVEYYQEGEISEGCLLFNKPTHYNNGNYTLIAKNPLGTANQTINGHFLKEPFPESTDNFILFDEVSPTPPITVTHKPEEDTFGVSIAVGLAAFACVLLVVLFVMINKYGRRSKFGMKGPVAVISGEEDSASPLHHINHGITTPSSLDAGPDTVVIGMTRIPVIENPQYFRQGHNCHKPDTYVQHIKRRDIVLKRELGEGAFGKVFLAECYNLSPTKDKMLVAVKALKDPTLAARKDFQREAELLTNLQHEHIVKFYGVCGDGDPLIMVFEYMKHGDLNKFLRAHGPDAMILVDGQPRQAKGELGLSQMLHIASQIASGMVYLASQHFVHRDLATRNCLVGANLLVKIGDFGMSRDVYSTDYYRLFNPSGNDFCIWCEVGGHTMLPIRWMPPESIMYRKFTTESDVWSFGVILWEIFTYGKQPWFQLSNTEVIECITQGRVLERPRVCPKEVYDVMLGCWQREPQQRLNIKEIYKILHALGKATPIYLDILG

FC(F)(F)c1ccc2c(c1)nc(-c1cccnc1)n2C1CC1 [MSD-CYP11B2-Negative-control]
inactive: residual activity [1] 100% | residual activity [2] 100% | residual activity [3] 100% | residual activity [4] 100% | residual activity [5] 100% | residual activity [6] 100% | residual activity [7] 99% | residual activity [8] 100% | residual activity [9] 100% | residual activity [10] 100% | residual activity [11] 100% | residual activity [12] 100% | residual activity [13] 100% | residual activity [14] 100% | residual activity [15] 100% | residual activity [16] 100% | residual activity [17] 100% | residual activity [18] 100% | residual activity [19] 100% | residual activity [20] 78% | residual activity [21] 100% | residual activity [22] 69% | residual activity [23] 100% | residual activity [24] 86% | residual activity [25] 100% | residual activity [26] 100% | residual activity [27] 100% | residual activity [28] 100% | residual activity [29] 100% | residual activity [30] 100% | residual activity [31] 92% | residual activity [32] 100% | residual activity [33] 100% | residual activity [34] 100% | residual activity [35] 100% | residual activity [36] 100% | residual activity [37] 100% | residual activity [38] 100% | residual activity [39] 100% | residual activity [40] 100% | residual activity [41] 100% | residual activity [42] 100% | residual activity [43] 100% | residual activity [44] 100% | inhibition [45] -3.28%

CC(C)(O)c1cncc(-c2nc3ccc(F)cc3n2C2CC2)c1 [MSD-CYP11B2]
inactive: residual activity [1] 92% | residual activity [2] 88% | residual activity [3] 72% | residual activity [4] 100% | residual activity [5] 100% | residual activity [6] 100% | residual activity [7] 91% | residual activity [8] 97% | residual activity [9] 100% | residual activity [10] 100% | residual activity [11] 100% | residual activity [12] 100% | residual activity [13] 100% | residual activity [14] 100% | residual activity [15] 100% | residual activity [16] 100% | residual activity [17] 95% | residual activity [18] 100% | residual activity [19] 100% | residual activity [20] 79% | residual activity [21] 100% | residual activity [22] 89% | residual activity [23] 100% | residual activity [24] 100% | residual activity [25] 92% | residual activity [26] 100% | residual activity [27] 100% | residual activity [28] 100% | residual activity [29] 100% | residual activity [30] 100% | residual activity [31] 96% | residual activity [32] 100% | residual activity [33] 100% | residual activity [34] 100% | residual activity [35] 89% | residual activity [36] 100% | residual activity [37] 100% | residual activity [38] 100% | residual activity [39] 100% | residual activity [40] 100% | residual activity [41] 100% | residual activity [42] 100% | residual activity [43] 100% | residual activity [44] 100% | inhibition [45] -5.72%
